In patent publication US20190091162A1, “POLYMER-LIPID HYBRID NANOPARTICLES OF CAPECITABINE UTILIZING MICROMIXING AND CAPECITABINE AMPHIPHILIC PROPERTIES” (Jingjie PTM BioLab (Hangzhou) Co., Ltd., priority 2017, published 2019):

Tests used:
[1] = unformulated CAP; cited from earlier work
[2] = Particle size by dynamic light scattering (DLS)

- Size of the particles formed by CAP ([2]; CAP in DI water, DLS): 2-30 nm
- Stability of CAP micelles ([2]; high concentrations of CAP in DI water, size and correlation function fluctuate): not very stable
Compound: CCCCCOC(=O)Nc1nc(=O)n([C@@H]2O[C@H](C)[C@@H](O)[C@H]2O)cc1F [CAP, N4-pentyloxycarbonyl-5-deoxy-5-fluoro-cytidine]
- Time within which the drug by itself is eliminated from the body [1]: 0.5 to 1 h
